The melting point is the temperature, or range, at which the solid turns liquid.

Read-outs that look alike come from different tables or passages of the source.

In data set [1] the test system is HeLa cells. Put plainly: Secondary assay: cell proliferation WST-1, HeLa. The data set is classed as cell-based. The settings on record: Homo sapiens, 48 h, read-out: Cell Proliferation Inhibition WST-1 (IC50 unless otherwise specified) HeLa. Summed up:
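Absorbance at 450 nm (reference 690 nm); % activity vs untreated after blank subtraction, IC50 fitted with top 100 and bottom 0.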

Data set [2] relates to HDAC (HeLa cell extract). Put plainly: Primary assay: deacetylase activity, HeLa cell extract as source of HDAC. The data set is classed as biochemical, human. The settings on record: HeLa cell extract. Summed up:
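Crude HeLa extract (freeze-thaw in 60 mM TrisCl pH 8.0, 450 mM NaCl, 30% glycerol) was incubated 1 h at 37° C with a [³H]acetyl-labelled histone H4 N-terminal peptide in 20 mM Tris pH 7.4, 10% glycerol.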

Data set [3] relates to K11 HPV E7 transformed human keratinocyte line. Kind of data set: Secondary assay: cell proliferation WST-1, K11. It is filed as cell-based. The following applies: Homo sapiens, Keratinocyte, 48 h, read-out: Cell Proliferation Inhibition WST-1 (IC50 unless otherwise specified) K11. Here is the method: (§1) Compounds with HDAC inhibition activity, as determined using the primary assay, were subsequently evaluated using secondary cell-based assays. The following cell lines were used:
K11—HPV E7 transformed human keratinocyte line provided by Pidder Jansen-Duerr, Institut für Biomedizinische Alternsforschung, Innsbruck, Austria.
(§2) Cells were plated in 96-well plates at 3-10×10^3 cells/well in 100 μL of culture medium. The following day, different concentrations of candidate compounds were added and the cells incubated at 37° C. for 48 h. Subsequently, 10 μL/well of WST-1 reagent was added and the cells reincubated for 1 hour. After the incubation time, absorbance was measured.
(§3) WST-1 is a tetrazolium salt which is cleaved to formazan dye by cellular enzymes. An expansion in the number of viable cells results in an increase in the overall activity of mitochondrial dehydrogenases in the sample. This augmentation in the enzyme activity leads to an increase in the amount of formazan dye formed, which directly correlates to the number of metabolically active cells in the culture. The formazan dye produced is quantified by a scanning multiwell spectrophotometer by measuring the absorbance of the dye solution at 450 nm wavelength (reference wavelength 690 nm).
(§4) Percent activity (% activity) in reducing the number of viable cells was calculated for each test compound as: % activity={(S^C−B)/(S^o−B)}×100 wherein S^C denotes signal measured in the presence of the compound being tested, S^o denotes signal measured in the absence of the compound being tested, and B denotes the background signal measured in blank wells containing medium only.
(§5) IC50 values were calculated using the software package Prism 3.0 (GraphPad software Inc., San Diego, Calif.), setting top value at 100 and bottom value at 0.
In general terms: Tetrazolium assays rely on reduction of a dye to a coloured formazan, in cell work by metabolically active cells.

For data set [4], the system named is JURKAT human T-cell line. Put plainly: Secondary assay: cell proliferation WST-1, Jurkat. It is filed as cell-based. The following applies: Homo sapiens, 48 h, read-out: Cell Proliferation Inhibition WST-1 (IC50 unless otherwise specified) Jurkat. Here is the method:
as §1
JURKAT—Human T-cell line (ATCC no. TIB-152).
as §2, §3, §4, §5

Setting [5] is: read-out: HDAC Inhibition (IC50 unless otherwise specified) HeLa.

Compound `O=C(CCCCCCC(=O)NC/C=C/c1ccccc1)NO` [PX117416, Octanedioic acid hydroxyamide (3-phenyl-allyl)-amide] returned a melting point of 133 to 133.5 °C. In addition, in data set [1], the IC50 worked out at 7.4 µM. Besides, in data set [2] (@ 500 nM), the “HDAC Inhibition HeLa, percent” value is recorded as 75% @ 500 nM. Moreover, the IC50 in data set [3] worked out at 8.5 µM. In data set [4], the IC50 is 3.6 µM.

For `O=C(CCCCCCC(=O)NCCCc1ccccc1)NO` [PX117420, Octanedioic acid hydroxyamide (3-phenyl-propyl)-amide], the melting point fell in the range of 97 to 98 °C. Besides, the IC50 in data set [1] is 15 µM. Moreover, in data set [2] (@ 500 nM), the “HDAC Inhibition HeLa, percent” value came out at 73% @ 500 nM. For the same compound, the IC50 in data set [3] was 23.5 µM. Further, the IC50 in data set [4] came to 5.3 µM.

`O=C(/C=C/c1cccc2ccccc12)NCCCCCC(=O)NO` [PX117441, N-(5-Hydroxycarbamoyl-pentyl)-3-naphthalen-1-yl-acrylamide]: the melting point lay within 135 to 137 °C. Also, in data set [1], the IC50 is 17 µM. In addition, the IC50 in data set [2] (setting [5]) came to 0.048 µM. In addition, in data set [2] (comparative tables, read-out: HeLa IC50), the IC50 worked out at 0.048 µM. Moreover, the IC50 in data set [3] was 4.9 µM. The IC50 in data set [4] turned out to be 4.3 µM.

In the case of `CC(/C=C/C(=O)Nc1cccc(/C=C/C(=O)NO)c1)=C\c1ccccc1` [PX117707, N-{3-[(E)-3-(Hydroxyamino)-3-oxo-1-propenyl]phenyl}-4-methyl-5-phenyl-(2E,4E)-pentadienamide], the melting point was 145 to 148 °C. In addition, in data set [1], the IC50 was found to be 43 µM. Besides, the IC50 in data set [2] (setting [5]) is 0.235 µM. In data set [3], the IC50 was 7.7 µM. Moreover, the IC50 in data set [4] worked out at 1.5 µM.

`O=C(/C=C/c1cccc(NC(=O)/C=C/c2ccc3c(c2)OCO3)c1)NO` [PX117711, (E)-3-(1,3-Benzodioxol-5-yl)-N-{3-[(E)-3-(hydroxyamino)-3-oxo-1-propenyl]phenyl}-2-propenamide] came in with a melting point of 128 °C. Also, the IC50 in data set [1] worked out at 9.8 µM. The IC50 in data set [2] (setting [5]) came out at 0.44 µM. Moreover, in data set [3], the IC50 amounted to 7.9 µM. Besides, the IC50 in data set [4] was determined as 0.92 µM.

The compound `O=C(/C=C/c1ccc(C(F)(F)F)cc1)NCCCCCC(=O)NO` [PX117717, N-(5-Hydroxycarbamoyl-pentyl)-3-(4-trifluoromethyl-phenyl)-acrylamide] displayed a melting point of 132 to 134 °C. The IC50 in data set [1] came to 5.9 µM. The IC50 in data set [2] (setting [5]) was found to be 0.022 µM. Also, the IC50 in data set [3] amounted to 2.34 µM. The IC50 in data set [4] was determined as 0.41 µM.

Turning to `O=C(/C=C/c1cccc(OC(F)(F)F)c1)NCCCCCC(=O)NO` [PX117718, N-(5-Hydroxycarbamoyl-pentyl)-3-(3-trifluoromethoxy-phenyl)-acrylamide], the melting point fell in the range of 109 to 111 °C. Moreover, in data set [1], the IC50 is 39 µM. Further, in data set [2] (setting [5]), the IC50 amounted to 0.067 µM. Also, the IC50 in data set [3] was determined as 3.7 µM. Also, the IC50 in data set [4] was 4.4 µM.

As to `O=C(CCCCCCC(=O)Nc1ccc(-c2ccccc2)cc1)NO` [PX117720, Octanedioic acid biphenyl-4-ylamide hydroxamide], the melting point was 227 to 229 °C. Besides, the IC50 in data set [1] was 1.8 µM. Besides, in data set [2] (setting [5]), the IC50 amounted to 0.04 µM. Also, in data set [3], the IC50 came to 2.5 µM. In addition, in data set [4], the IC50 was 0.26 µM.

The compound `Cc1ccc(C(CC(=O)NCCCCCC(=O)NO)NC(=O)OCc2ccccc2)cc1` (stereo not drawn) [PX117729, [2-(5-Hydroxycarbamoyl-pentylcarbamoyl)-1-p-tolyl-ethyl]-carbamic acid benzyl ester] came in with a melting point of 146 to 148 °C. Moreover, the IC50 in data set [1] is 33 µM. Moreover, the “HDAC Inhibition HeLa, percent” value in data set [2] (@ 100 nM) is given as 13% @ 100 nM. Also, in data set [3], the IC50 was 23 µM. Besides, the IC50 in data set [4] worked out at 2.8 µM.

Compound `CC(=C\c1ccccc1)/C=C(\C)C(=O)NCCCCCC(=O)NO` [PX117738, (2E)(4E)-2,4-Dimethyl-5-phenylpenta-2,4-dienoic acid (5-hydroxycarbamoyl-pentyl)amide] had a melting point of 120 to 122 °C. The IC50 in data set [1] came out at 24 µM. Further, in data set [2] (setting [5]), the IC50 came out at 0.131 µM. In data set [3], the IC50 was determined as 3.2 µM. In addition, in data set [4], the IC50 turned out to be 1.7 µM.

Values taken from patent US7569724B2, “Carbamic acid compounds comprising an amide linkage as HDAC inhibitors” (Topotarget UK Limited, priority 2000, dated 2009).
